Source: patent publication US20040076974A1, “Liver necrosis predictive genes” (priority 2002, published 2004)
Where two headings read alike, the source gives them in different places.

Tested on: Sprague Dawley rats
Conditions: for Liver Necrosis / Score (histopathology liver necrosis severity score): rat, intraperitoneal; for Liver Necrosis: 72 hours after treatment; for Score (histopathology liver necrosis severity score): 72 hours, 1 = not remarkable, 2 and higher increasing severity
Summary of the method: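 Toxicity calls (necrosis present or absent at 72 h) and histopathology scores were correlated with tissue gene expression from Crl:CD Sprague Dawley rats. Animals, usually 3 treated with compound by i.p. route and 3 given vehicle, were killed at 6, 24 or 72 h and tissues frozen immediately in liquid nitrogen.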

CCC1(c2ccccc2)C(=O)NC(=O)NC1=O [phenobarbital]
1: Score (histopathology liver necrosis severity score) (dose 20 mg/kg) | Score (histopathology liver necrosis severity score) (dose 80 mg/kg)
no: Liver Toxicity Necrosis Classification (72 h, dose 20) | Liver Toxicity Necrosis Classification (72 h, dose 80) | Liver Toxicity Necrosis Classification (compound-dose group at 72 h, dose 20) | Liver Toxicity Necrosis Classification (compound-dose group at 72 h, dose 80) | Liver Toxicity Necrosis Classification (compound-dosegroup at 72 h, dose 20) | Liver Toxicity Necrosis Classification (compound-dosegroup at 72 h, dose 80) | Liver Necrosis (dose 20 mg/kg) | Liver Necrosis (dose 80 mg/kg)
